Results on 26 molecules are retold here after US20170296682A1, “DERIVATIVES OF DIBENZOTHIOPHENE IMAGING OF alpha-7 NICOTINIC ACETYLCHOLINE RECEPTORS” (THE JOHNS HOPKINS UNIVERSITY, priority 2015, published 2017).

A word on the pKi: it is the negative decadic logarithm of the Ki, by convention in mol/L.

The target of data set [1] is T1, α7-nAChR (Mus musculus, UniProt P49582). The conditions noted are these: in vivo; cited from earlier work.
Data set [2] addresses T2, α7-nAChR (Homo sapiens, UniProt P36544). The conditions noted are these: read-out: α7-nAChR, Ki, cited from earlier work.
In data set [3] the target is T1, α7-nAChR. The conditions noted are these: in vivo.
In data set [4] the target is T1, α7-nAChR. To be noted: drugs 2 mg/kg sc, 10 min before radiotracer, 90 min.
The next data set deals with α4β2-nAChR (Rattus norvegicus, UniProt P09483+P12390). The data set is described as follows: Heteromeric nAChR binding assay, transfected HEK293 membranes, [3H]epibatidine.
Sequence of α4β2-nAChR (P09483 31-630): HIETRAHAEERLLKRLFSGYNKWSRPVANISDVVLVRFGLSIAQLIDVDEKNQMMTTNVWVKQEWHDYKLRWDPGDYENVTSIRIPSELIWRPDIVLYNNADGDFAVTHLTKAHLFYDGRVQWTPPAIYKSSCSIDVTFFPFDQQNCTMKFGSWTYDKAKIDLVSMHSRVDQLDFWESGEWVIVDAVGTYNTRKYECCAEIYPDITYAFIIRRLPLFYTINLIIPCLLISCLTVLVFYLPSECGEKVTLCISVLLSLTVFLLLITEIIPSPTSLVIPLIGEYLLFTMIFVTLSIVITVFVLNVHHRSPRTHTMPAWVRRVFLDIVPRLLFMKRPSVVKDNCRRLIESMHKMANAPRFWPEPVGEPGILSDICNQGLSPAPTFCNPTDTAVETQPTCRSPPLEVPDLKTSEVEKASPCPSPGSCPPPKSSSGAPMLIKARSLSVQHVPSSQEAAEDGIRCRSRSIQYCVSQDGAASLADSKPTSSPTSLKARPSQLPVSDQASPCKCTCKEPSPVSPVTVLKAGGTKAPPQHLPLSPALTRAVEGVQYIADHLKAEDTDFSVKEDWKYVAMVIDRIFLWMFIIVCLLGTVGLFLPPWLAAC
Sequence of α4β2-nAChR (P12390 25-500): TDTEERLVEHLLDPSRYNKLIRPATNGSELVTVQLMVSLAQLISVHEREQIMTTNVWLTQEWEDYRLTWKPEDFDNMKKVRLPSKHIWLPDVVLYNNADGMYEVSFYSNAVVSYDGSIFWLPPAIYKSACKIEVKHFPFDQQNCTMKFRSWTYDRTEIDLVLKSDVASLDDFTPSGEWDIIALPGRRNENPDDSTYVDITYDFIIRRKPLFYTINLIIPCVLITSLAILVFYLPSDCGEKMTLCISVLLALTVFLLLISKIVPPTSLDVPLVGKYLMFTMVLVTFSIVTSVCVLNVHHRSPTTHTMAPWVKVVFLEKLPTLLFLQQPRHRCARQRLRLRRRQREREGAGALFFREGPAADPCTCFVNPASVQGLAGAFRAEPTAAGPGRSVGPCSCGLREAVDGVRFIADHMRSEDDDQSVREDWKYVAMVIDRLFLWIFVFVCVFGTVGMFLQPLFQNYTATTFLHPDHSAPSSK
For the next data set, the target named is T3, α3β4-nAChR (Rattus norvegicus, UniProt P04757+P12392).
T3 construct: expressed in transfected cells
T3 sequence (P04757 26-499): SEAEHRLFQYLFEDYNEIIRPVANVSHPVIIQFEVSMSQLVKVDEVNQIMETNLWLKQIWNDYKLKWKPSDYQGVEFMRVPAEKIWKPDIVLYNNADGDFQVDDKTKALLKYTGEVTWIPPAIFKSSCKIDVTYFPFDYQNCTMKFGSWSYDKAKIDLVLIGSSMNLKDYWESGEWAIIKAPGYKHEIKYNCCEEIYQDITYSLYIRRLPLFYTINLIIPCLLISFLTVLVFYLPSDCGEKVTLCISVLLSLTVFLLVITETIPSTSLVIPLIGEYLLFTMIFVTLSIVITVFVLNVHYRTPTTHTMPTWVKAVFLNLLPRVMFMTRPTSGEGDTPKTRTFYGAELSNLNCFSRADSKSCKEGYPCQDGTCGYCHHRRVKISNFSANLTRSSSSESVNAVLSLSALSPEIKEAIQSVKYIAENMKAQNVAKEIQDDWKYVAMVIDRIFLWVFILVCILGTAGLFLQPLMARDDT
T3 sequence (P12392 21-495): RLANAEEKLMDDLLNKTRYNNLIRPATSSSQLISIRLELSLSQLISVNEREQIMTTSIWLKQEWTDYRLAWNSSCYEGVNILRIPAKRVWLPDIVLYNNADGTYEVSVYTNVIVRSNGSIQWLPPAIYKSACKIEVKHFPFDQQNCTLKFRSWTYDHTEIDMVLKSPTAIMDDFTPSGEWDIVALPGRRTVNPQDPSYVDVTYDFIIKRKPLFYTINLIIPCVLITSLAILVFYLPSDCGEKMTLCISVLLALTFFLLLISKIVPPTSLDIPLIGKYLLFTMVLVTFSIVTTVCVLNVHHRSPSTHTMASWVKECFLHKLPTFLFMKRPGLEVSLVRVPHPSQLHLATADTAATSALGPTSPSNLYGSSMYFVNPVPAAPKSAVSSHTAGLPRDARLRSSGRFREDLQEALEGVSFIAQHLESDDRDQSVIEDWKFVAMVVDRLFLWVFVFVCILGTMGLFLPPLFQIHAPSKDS
Described as above.

The target of data set [5] is α7-nAChR (Rattus norvegicus, UniProt Q05941). The data set is described as follows: biochemical. It is filed as binding.
Sequence of α7-nAChR (Rattus norvegicus, UniProt Q05941) (Q05941 23-502): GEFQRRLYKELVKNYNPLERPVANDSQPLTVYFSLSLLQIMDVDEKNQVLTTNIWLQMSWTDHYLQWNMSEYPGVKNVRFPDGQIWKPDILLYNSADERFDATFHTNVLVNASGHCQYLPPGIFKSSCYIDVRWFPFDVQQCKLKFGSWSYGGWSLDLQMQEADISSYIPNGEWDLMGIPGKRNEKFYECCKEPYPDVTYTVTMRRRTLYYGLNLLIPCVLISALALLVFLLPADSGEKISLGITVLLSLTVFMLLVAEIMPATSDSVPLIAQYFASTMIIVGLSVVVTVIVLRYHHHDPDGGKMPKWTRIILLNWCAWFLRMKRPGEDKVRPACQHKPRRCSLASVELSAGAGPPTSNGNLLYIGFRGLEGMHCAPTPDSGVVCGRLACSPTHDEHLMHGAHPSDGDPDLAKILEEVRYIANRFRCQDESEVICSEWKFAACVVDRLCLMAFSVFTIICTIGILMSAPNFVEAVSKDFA
For the next data set, the target named is T4, α2β4-nAChR (Rattus norvegicus, UniProt P12389+P12392).
T4 construct: expressed in transfected cells
T4 sequence (P12389 28-511): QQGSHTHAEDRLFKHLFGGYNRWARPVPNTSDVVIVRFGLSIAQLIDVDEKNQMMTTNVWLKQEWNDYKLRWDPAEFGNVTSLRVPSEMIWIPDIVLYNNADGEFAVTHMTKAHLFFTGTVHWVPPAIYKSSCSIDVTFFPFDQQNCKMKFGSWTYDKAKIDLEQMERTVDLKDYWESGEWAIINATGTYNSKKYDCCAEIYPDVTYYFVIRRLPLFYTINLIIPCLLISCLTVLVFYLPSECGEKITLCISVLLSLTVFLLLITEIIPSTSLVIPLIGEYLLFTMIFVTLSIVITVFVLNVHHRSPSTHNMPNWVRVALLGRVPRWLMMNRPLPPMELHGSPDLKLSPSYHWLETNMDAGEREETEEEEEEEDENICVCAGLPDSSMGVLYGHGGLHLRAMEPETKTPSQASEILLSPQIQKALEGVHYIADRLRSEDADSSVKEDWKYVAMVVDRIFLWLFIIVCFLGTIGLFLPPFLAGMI
T4 sequence (P12392 21-495): as the sequence (P12392 21-495) above
The data set is described as follows: Heteromeric nAChR binding assay, transfected HEK293 membranes, [3H]epibatidine.

For another data set, the target named is α3β2-nAChR (Rattus norvegicus, UniProt P04757+P12390). Described as above.
Sequence of α3β2-nAChR (P04757 26-499): as the sequence (P04757 26-499) above
Sequence of α3β2-nAChR (P12390 25-500): as the sequence (P12390 25-500) above
The target of a further data set is T5, α4β4-nAChR (Rattus norvegicus, UniProt P09483+P12392).
T5 construct: expressed in transfected cells
T5 sequence (P09483 31-630): as the sequence (P09483 31-630) above
T5 sequence (P12392 21-495): as the sequence (P12392 21-495) above
The description is as above.

A further data set concerns the target α2β2-nAChR (Rattus norvegicus, UniProt P12389+P12390). The description is as above.
The target in another data set is T6, Human 5-HT3 (Homo sapiens, UniProt P46098).
T6 sequence (P46098 24-478): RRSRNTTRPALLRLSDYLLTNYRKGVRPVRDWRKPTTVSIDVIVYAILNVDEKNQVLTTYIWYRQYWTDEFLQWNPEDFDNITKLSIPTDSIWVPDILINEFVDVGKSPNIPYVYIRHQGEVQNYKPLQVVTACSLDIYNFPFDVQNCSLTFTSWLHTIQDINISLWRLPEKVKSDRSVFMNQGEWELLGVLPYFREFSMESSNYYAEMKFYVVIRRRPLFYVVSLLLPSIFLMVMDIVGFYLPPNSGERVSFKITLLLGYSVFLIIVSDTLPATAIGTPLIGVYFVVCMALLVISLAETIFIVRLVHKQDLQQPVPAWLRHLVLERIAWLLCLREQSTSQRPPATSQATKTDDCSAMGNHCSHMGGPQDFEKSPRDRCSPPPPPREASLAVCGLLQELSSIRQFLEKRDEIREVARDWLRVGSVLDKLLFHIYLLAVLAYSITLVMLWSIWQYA
The data set is described as follows: 5-HT3(h) binding assay, recombinant HEK293 cells, [3H]GR65630.

Data set [6] deals with T1, α7-nAChR. To be noted: in vivo. The source holds these as a separate data set.
In data set [7] the target is T1, α7-nAChR. The arrangement: The brains were rapidly removed and dissected on ice; tissue Charles River Laboratories; host or cells: brain of live male CD-1 mice; species or system CD-1 mice. The conditions noted are these: in vivo.
The target of data set [8] is T1, α7-nAChR. The data set is described as follows: Blockade of [18F]ASEM in CD1 mice with mouse-equivalent doses of clinical α7-nAChR drugs. It is filed as in vivo. Also noted: The brains were rapidly removed and dissected on ice; tissue Charles River Laboratories; host or cells: brain of live male CD-1 mice.
The target in data set [9] is T2, α7-nAChR. The conditions noted are these: read-out: Ki α7-nAChR (literature); cited from earlier work.
Data set [10] addresses T1, α7-nAChR. The arrangement: The brains were rapidly removed and dissected on ice; tissue Charles River Laboratories; host or cells: brain of live male CD-1 mice; species or system CD-1 mice. The conditions noted are these: in vivo. The source holds these as a separate data set.
[11] abbreviates: previously published values, varied assay conditions.
[12] abbreviates: stably transfected HEK293 cells, [3H]epibatidine (0.5 nM).

pKi: −log10 of the molar value. Several values for one entry are separate records, joined by “and”; a condition that tells them apart may be missing. Equal entries are not always repeated. Where two headings read alike, the source gives them in different places.

Sequence of α2β2-nAChR (P12389 28-511): as the sequence (P12389 28-511) above
Sequence of α2β2-nAChR (P12390 25-500): as the sequence (P12390 25-500) above
T1 sequence (P49582 23-502): as the sequence (Q05941 23-502) above, with A402T counted along it
T2 sequence (P36544 23-502): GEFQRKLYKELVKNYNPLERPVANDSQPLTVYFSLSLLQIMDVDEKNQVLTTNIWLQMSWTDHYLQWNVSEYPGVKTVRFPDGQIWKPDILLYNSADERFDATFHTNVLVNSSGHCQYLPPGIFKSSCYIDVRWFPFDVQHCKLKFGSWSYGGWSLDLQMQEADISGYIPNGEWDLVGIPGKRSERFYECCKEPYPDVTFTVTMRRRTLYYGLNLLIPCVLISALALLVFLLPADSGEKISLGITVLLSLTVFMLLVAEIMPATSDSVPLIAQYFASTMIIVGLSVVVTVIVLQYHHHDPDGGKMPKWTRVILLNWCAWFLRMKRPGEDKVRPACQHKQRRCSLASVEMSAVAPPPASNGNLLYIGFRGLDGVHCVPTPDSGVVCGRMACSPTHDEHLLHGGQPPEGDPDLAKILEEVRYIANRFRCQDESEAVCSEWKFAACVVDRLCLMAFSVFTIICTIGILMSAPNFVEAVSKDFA

With `[11CH3]N1CC2CN(c3ccc(-c4ccc5[nH]ccc5c4)nc3)CC21` (centres unmarked) [5-(5-(6-[(11)C]methyl-3,6-diazabicyclo[3.2.0]heptan-3-yl)pyridin-2-yl)-1H-indole], on α7-nAChR [1], the “BPND in cortex, Mice” value is 1.9.

In the case of `[11CH3]N1CC2CN(c3ccc4c(c3)C(=O)C3C=CC=CC3O4)CC2C1` (centres unmarked), on α7-nAChR [2] (setting [11]), the pKi was 7.96.

Turning to `CN1CCCC1c1cccnc1` (centres unmarked) [nicotine], on α7-nAChR [3], the “blockade of [18F]7a accumulation in mouse brain” value is “significant blockade in all regions except the nAChR-poor cerebellum”.

`Cc1nccn1CC1CCc2c(c3ccccc3n2C)C1=O` (centres unmarked) [ondansetron]: at α7-nAChR [4], the “effect on accumulation of [18F]7a in mouse brain” value was “absence of blockade”.

Regarding `O=S1(=O)c2ccccc2-c2c(N3CCN4CCC3CC4)ccc(F)c21` [Compound 7e, 1-(1,4-Diazabicyclo[3.2.2]nonan-4-yl)-4-fluorodibenzo[b,d]-thiophene 5,5-Dioxide], at α4β2-nAChR, the “selectivity α7/α4β2” value worked out at 210. Also, the negative logarithm of the Ki (pKi) at α4β2-nAChR (setting [12]) was 5.40; on α3β4-nAChR (setting [12]), 6.58; at α7-nAChR [5] (read-out: Ki α7-nAChR), 7.75 and 7.69; at α2β4-nAChR (setting [12]) it was 6.25; at α3β2-nAChR (setting [12]), 5.70; at α4β4-nAChR (setting [12]), 6.60.

Take `[11CH3]N1CC2CN(c3ccc(-c4ccccc4)nn3)CC2C1` (centres unmarked): the negative logarithm of the Ki (pKi) on α7-nAChR [2] was 7.97. The “BPND in cortex, Mice” value at α7-nAChR [1] is 0.2-0.5.

`[125I]c1occc1-c1cnc2c(c1)CC1(CN3CCC1CC3)O2` (centres unmarked): at α7-nAChR [2], the pKi is 9.59. The “BPND in cortex, Mice” value on α7-nAChR [1] is recorded as 0.6.

On to `[11CH3]c1ccc(OC(=O)N2CCN3CCC2CC3)cc1`, for which the “BPND in cortex, Mice” value at α7-nAChR [1] is roughly 0.6.

`O=[N+]([O-])c1cccc2c1S(=O)(=O)c1cc(N3CCN4CCC3CC4)ccc1-2` [Compound 10, 3-(1,4-Diazabicyclo[3.2.2]nonan-4-yl)-6-nitrodibenzo[b,d]-thiophene 5,5-Dioxide]: the pKi is 9.46 on α7-nAChR [5] (Ki α7-nAChR) and 9.47 on α7-nAChR [5] (read-out: Ki α7-nAChR).

As to `O=S1(=O)c2cc(F)ccc2-c2ccc(N3CCN4CCC3CC4)cc21` [Compound 7b, 4-(7-Fluorodibenzo[b,d]thiophen-3-yl)-1,4-diazabicyclo-[3.2.2]nonane 5,5-Dioxide], the pKi on α7-nAChR [5] (read-out: Ki α7-nAChR) was 8.99 and 8.86.

As to `O=S1(=O)c2ccc(I)cc2-c2ccc(N3CCN4CCC3CC4)cc21` [Compound 15, 7-(1,4-Diazabicyclo[3.2.2]nonan-4-yl)-2-iododibenzo[b,d]-thiophene 5,5-Dioxide], the pKi on α4β2-nAChR was 6.32; at α3β4-nAChR it was 5.05; on α7-nAChR [5] (read-out: Ki α7-nAChR), 8.19 and 8.06; at α2β4-nAChR it was 5.22; at α3β2-nAChR, 6.00; on α4β4-nAChR, 5.30. This molecule also had a negative-log Ki (pKi) on α2β2-nAChR of 6.11. Moreover, the “selectivity α7/α4β2” value at α4β2-nAChR stood at 63.

As for `O=S1(=O)c2cc(N3CCN4CCC3CC4)ccc2-c2cccc(I)c21` [Compound 14, 3-(1,4-Diazabicyclo[3.2.2]nonan-4-yl)-6-iododibenzo[b,d]-thiophene 5,5-Dioxide], the negative logarithm of the Ki (pKi) at α7-nAChR [5] (read-out: Ki α7-nAChR) was 9.03.

For `O=S1(=O)c2ccccc2-c2ccc(N3CCN4CCC3CC4)c(F)c21` [Compound 7d, 3-(1,4-Diazabicyclo[3.2.2]nonan-4-yl)-4-fluorodibenzo[b,d]-thiophene 5,5-Dioxide], the negative logarithm of the Ki (pKi) at α4β2-nAChR was 6.85; at α3β4-nAChR, 5.52; at α7-nAChR [5] (read-out: Ki α7-nAChR), 8.74 and 8.61; on α2β4-nAChR, 6.08; on α3β2-nAChR, 6.17; on α4β4-nAChR, 6.00. Moreover, on α2β2-nAChR, the negative logarithm of the Ki (pKi) is 6.53. Also, on α4β2-nAChR, the “selectivity α7/α4β2” value is listed as 66.

In the case of `[18F]CCn1ccc2ccc(-c3nnc(N4CCN5CCC4CC5)o3)cc21`, the negative-log Ki (pKi) at α7-nAChR [2] is 8.60.

For the molecule `[18F]c1ccc(-c2nnc(N3CCN4CCC3CC4)o2)cc1`, the “BPND in cortex, Mice” value on α7-nAChR [1] was 0.4.

Regarding `O=c1cccc2n1C[C@@H]1CNC[C@H]2C1` [cytisine], the “blockade of [18F]7a accumulation in mouse brain” value on α7-nAChR [3] was “insignificant reduction of radioactivity accumulation in all regions studied”.

Consider `O=S1(=O)c2ccc(F)cc2-c2ccc(N3CCN4CCC3CC4)cc21` [Compound 7c, 7-(1,4-Diazabicyclo[3.2.2]nonan-4-yl)-2-fluorodibenzo[b,d]-thiophene 5,5-Dioxide], for which the “selectivity α7/5HT3” value on Human 5-HT3 stood at 378. The negative logarithm of the Ki (pKi) is 6.30 on Human 5-HT3 (Human 5-HT3 recombinant/HEK293 cells, [3H]GR65630 (0.35 nM)); 6.05 on α4β2-nAChR (setting [12]); 5.30 on α3β4-nAChR (setting [12]); 8.87 at α7-nAChR [5] (Ki α7-nAChR); 8.89 at α7-nAChR [5] (Ki α7-nAChR (text)); 8.88 at α7-nAChR [5] (read-out: Ki α7-nAChR). Besides, the negative-log Ki (pKi) is 5.10 at α2β4-nAChR (setting [12]), 5.70 at α3β2-nAChR (setting [12]), 5.52 on α4β4-nAChR (setting [12]) and 6.00 on α2β2-nAChR (setting [12]). The “behavioral / locomotor activity changes” value on α7-nAChR [6] is reported as “Neither behavioral nor locomotor activity changes were observed”. In addition, the “selectivity α7/α4β2” value on α4β2-nAChR worked out at 663.

On to `[11CH3]N1CC2CN(c3ccc(-c4ccc5[nH]ccc5c4)nn3)CC2C1` (centres unmarked), for which, at α7-nAChR [1], the “BPND in cortex, Mice” value was 0.5.

On to `[11CH3]n1cccc1-c1nnc(N2CCN3CCC2CC3)o1`, for which the pKi at α7-nAChR [2] is 8.66.

For `[18F]c1ccccc1-c1cnc2c(c1)CC1(CN3CCC1CC3)O2` (centres unmarked), the pKi on α7-nAChR [2] was 9.70. For the same molecule, the “BPND in cortex, Mice” value at α7-nAChR [1] is 0.8.

For `O=[N+]([O-])c1ccc2c(c1)-c1ccc(N3CCN4CCC3CC4)cc1S2(=O)=O` [Compound 11, 7-(1,4-Diazabicyclo[3.2.2]nonan-4-yl)-2-nitrodibenzo[b,d]-thiophene 5,5-Dioxide], the pKi on α7-nAChR [5] (read-out: Ki α7-nAChR) was 8.47 and 8.21.

As to `O=S1(=O)c2ccc([18F])cc2-c2ccc(N3CCN4CCC3CC4)cc21` [[^18F]7c, 4-(8-[^18F]fluorodibenzo[b,d]thiophen-3-yl)-1,4-diazabicyclo[3.2.2]nonane 5,5-dioxide], at α7-nAChR [7], the “Approximate BPND, Coll” value is given as 2.0 ± 0.5; the “Approximate BPND, Ctx” value amounted to 2.0 ± 0.3; the “Approximate BPND, Hipp” value came to 3.1 ± 0.7. Moreover, the “ratios of tissues to cerebellum” value at α7-nAChR [7] (iv) stood at 4.5. Moreover, at α7-nAChR [6], the baseline-to-blockade ratio is 5 and the specific binding value was determined as 80%. The same molecule had a negative-log Ki (pKi) on α7-nAChR [5] (Ki α7-nAChR (text)) of 8.89.

Take `COc1ccc(/C=C2\CCCN=C2c2cccnc2)c(OC)c1` [DMXB-A, Dimethoxybenzylidene anabaseine]: the “blockade of [18F]ASEM binding” value was 40% at α7-nAChR [8] (3 mg/kg, cortex); 28% at α7-nAChR [8] (3 mg/kg, hippocampus); 50-70% on α7-nAChR [8] (10 mg/kg, hippocampus, cortex, subcolliculus); 50-60% on α7-nAChR [8] (25 mg/kg, hippocampus, cortex, superior and inferior colliculus); “did not show significant blockade” on α7-nAChR [8] (0.1, 0.3, and 1 mg/kg).

Regarding `O=C(Oc1ccc([76Br])cc1)N1CCN2CCC1CC2`, the pKi on α7-nAChR [2] (setting [11]) is 7.60.

With `O=[11C](Nc1ccc(Br)cc1)OC1CN2CCC1CC2` (centres unmarked), the “BPND in cortex, Mice” value on α7-nAChR [1] is listed as roughly 0.3.

Regarding `O=S1(=O)c2ccccc2-c2ccc(N3CCN4CCC3CC4)cc21` [Compound 5, 3-(1,4-diazabicyclo[3.2.2]nonan-4-yl)dibenzo[b,d]thiophene 5,5-dioxide, reference compound], the pKi is 10.64 on α7-nAChR [9]; 9.52 and 9.30 at α7-nAChR [5] (read-out: Ki α7-nAChR (reference compounds)). Also, the “blockade of [18F]7c accumulation in mouse brain” value at α7-nAChR [10] was “dose dependent blockade”.
